In one assay the target is T1, Human HDAC8 (Homo sapiens, UniProt Q9BY41).
T1 construct: full-length with a C-terminal His tag, MW=46.4 kDa; His tag (C); made in house; host or cells: baculovirus expression system
T1 sequence (Q9BY41 1-377): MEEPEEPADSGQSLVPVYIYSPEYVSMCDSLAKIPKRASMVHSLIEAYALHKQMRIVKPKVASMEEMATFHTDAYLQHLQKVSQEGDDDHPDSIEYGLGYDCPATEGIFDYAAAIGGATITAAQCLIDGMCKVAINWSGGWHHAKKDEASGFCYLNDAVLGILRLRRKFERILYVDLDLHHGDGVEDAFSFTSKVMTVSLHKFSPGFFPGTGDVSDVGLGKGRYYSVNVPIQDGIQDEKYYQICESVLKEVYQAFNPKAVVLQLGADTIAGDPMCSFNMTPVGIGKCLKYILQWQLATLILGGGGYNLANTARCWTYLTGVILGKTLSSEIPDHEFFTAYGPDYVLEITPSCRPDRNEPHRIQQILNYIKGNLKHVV
Description: Biochemical HDAC enzymatic assay, HDAC8. Conditions: Table 1; incubation time 10 min. As for the experimental part: Incubation time for HDAC1/2 is 120 min, and 10 min for other HDACs.
Human HDAC8 (GenBank Accession No. NM_018486), full-length with a C-terminal His tag, MW=46.4 kDa, was expressed in a baculovirus expression system.
(§1) • I. Compound handling: Testing compounds were dissolved in 100% DMSO to a specific concentration. The serial dilution was conducted by epMotion 5070 in DMSO. • II. HDAC reaction buffer: 50 mM Tris-HCl, pH8.0, 137 mM NaCl, 2.7 mM KCl, and 1 mM MgCl2, Added fresh: 1 mg/ml BSA, 1% DMSO. • III. Substrate: Fluorogenic HDAC General Substrate for HDAC1, 2, 3, 6, 10, 11 ans Sirt1, 2 and 3: Arg-His-Lys-Lys(Ac); HDAC8 only substrate: Arg-His-Lys(Ac)-Lys(Ac); Class2A Substrate (HDAC4, 5, 7 and 9): Acetyl-Lys(trifluoroacetyl)-AMC; Sirt5 substrate: Ac-Lys(succinyl)-AMC. • IV. General Reaction Procedure: (Standard IC50 determination) • a. Delivered 2× enzyme in wells of reaction plate except No Enzyme (No En) control wells. Add buffer in No En wells. • b. Delivered compounds in 100% DMSO into the enzyme mixture by Acoustic technology (Echo550; nanoliter range). Spin down and pre-incubation. • c. Delivered 2× Substrate Mixture (Fluorogenic HDAC Substrate and co-factor (500 μM of Nicotinamide adenine dinucleotide (NAD^+) in all Sirt assay) in all reaction wells to initiate the reaction. Spin and shake. • d. Incubated for 1-2 hr. at 30° C. with seal. • e. Added Developer with Trichostatin A (or TMP269 or NAD^+) to stop the reaction and to generate fluorescent color. • f. Fluorescence was read (excitatory, 360; emission, 460) using the EnVision Multilabel Plate Reader (Perkin Elmer) • g. Endpoint reading was taken for analysis after the development reaches plateau. • V. Data Analysis: The percentages of enzyme activity (relative to DMSO controls) and IC50 values were calculated using the GraphPad Prism 4 program based on a sigmoidal dose-response equation.
The inhibitory activities of HDAC of compounds of the invention were determined using biochemical HDAC assays. Compounds were tested at the indicated doses in the biochemical assays of HDAC1, HDAC2, HDAC3, HDAC4, HDAC5, HDAC6, HDAC7, HDAC8, HDAC9, HDAC10, or HDAC11 enzyme. The curve fit and IC50 values were calculated using the GraphPad Prism 4 program based on a sigmoidal dose-response equation.
as §1, with “[…]” for “μM”, “equation. […]” for “equation.”
Molecule `Nc1cc(F)ccc1NC(=O)c1ccc(CN2C(=O)CCCC23CNC3)cc1` [Example 3, N-(2-amino-4-fluorophenyl)-4-((6-oxo-2,5-diazaspiro[3.5]nonan-5-yl)methyl)benzamide] showed a half-maximal inhibitory concentration (IC50) above 10 µM.
Regarding `Nc1ccc(-c2ccc(F)cc2)cc1NC(=O)c1ccc(N2CC3(CCOCC3)OC2=O)nc1` [Example 5, N-(4-amino-4′-fluoro-[1,1′-biphenyl]-3-yl)-6-(2-oxo-1,8-dioxa-3-azaspiro[4.5]decan-3-yl)nicotinamide], the IC50 was above 20 µM.
In the case of `Nc1ccc(-c2cccs2)cc1NC(=O)c1ccc(N2CC3(CCNCC3)CCC2=O)nc1` [Example 6, N-(2-amino-5-(thiophen-2-yl)phenyl)-6-(3-oxo-2,9-diazaspiro[5.5]undecan-2-yl)nicotinamide], the concentration for half-maximal inhibition (IC50) was above 20 µM.
Still for that read-out and setting: to `CN1CCC2(CC1)CN(c1ccc(C(=O)Nc3cc(-c4cccs4)ccc3N)cn1)C(=O)O2` [Example 4, N-(2-amino-5-(thiophen-2-yl)phenyl)-6-(8-methyl-2-oxo-1-oxa-3,8-diazaspiro[4.5]decan-3-yl)nicotinamide] belongs above 20 µM; to `Nc1ccc(-c2cccs2)cc1NC(=O)c1ccc(CN2C(=O)CCC23CCNCC3)cc1` [Example 2, N-(2-amino-5-(thiophen-2-yl)phenyl)-4-((2-oxo-1,8-diazaspiro[4.5]decan-1-yl)methyl)benzamide], above 20 µM.
Take `Nc1ccc(-c2cccs2)cc1NC(=O)c1ccc(CN2C(=O)CCCC23CNC3)cc1` [Example 1, N-(2-amino-5-(thiophen-2-yl)phenyl)-4-((6-oxo-2,5-diazaspiro[3.5]nonan-5-yl)methyl)benzamide]: the IC50 is above 20 µM.

The assay is the same for the next values; noted with them: Table 2; incubation time 10 min.
`O=C(NO)c1ccc(CN2C(=O)c3ccccc3C23CCN(C2CC2)CC3)cc1` [Compound Example 12, 4-((1′-cyclopropyl-3-oxospiro[isoindoline-1,4′-piperidin]-2-yl)methyl)-N-hydroxybenzamide] displayed an IC50 of 1.2 µM.
`O=C(NO)c1ccc(CN2C(=O)c3ccccc3C23OCCO3)cc1` [Compound Example 8, N-hydroxy-4-((3-oxospiro[isoindoline-1,2′-[1,3]dioxolan]-2-yl)methyl)benzamide]: 0.4 µM corresponded to half-maximal inhibition (IC50). This IC50 lies about 3-fold lower than the previous one.
For `O=C(NO)c1ccc(CN2C(=O)C3(CCOC3)c3ccccc32)cc1` (centres unmarked) [Compound Example 9], the concentration for half-maximal inhibition (IC50) was determined as 1.92 µM.
In turn, `CN(C)C(=O)N1CCC2(CC1)c1ccccc1C(=O)N2Cc1ccc(C(=O)NO)cc1` [Compound Example 11, 2-(4-(hydroxycarbamoyl)benzyl)-N,N-dimethyl-3-oxospiro[isoindoline-1,4′-piperidine]-1′-carboxamide] showed an IC50 of 0.52 µM.
Take `O=C(NO)c1ccc(CN2C(=O)c3ccccc3C23CCNCC3)cc1` [Compound Example 10, N-hydroxy-4-((3-oxospiro[isoindoline-1,4′-piperidin]-2-yl)methyl)benzamide]: half-maximal inhibition (IC50) was put at 0.71 µM.
